Laboratory results as given in patent US20130330322A1, “Methods of Treating Skin Aging With Toll-Like Receptor 7 Agonists” (Metabeauty, Inc., priority 2012, published 2013).

Columns and labels:
[1] = tested on: normal photodamaged dermal or epidermal tissue; conditions: topical application; cited from earlier work
[2] = tested on: aging skin; assay: twelve-week clinical study, combined contemporaneous treatment with IRM and retinoid (2a); format: in vivo, human; conditions: contemporaneous application
Experimental: On Day 0, each enrolled subject is supplied with a package of individually coded tubes of cream, labeled “Tube A” and “Tube B”. Tube A contains one of two formulations: 5% IRM+vehicle (carrier); or vehicle only (placebo); Tube B contains either 0.025% tretinoin in a cream formulation or vehicle only (placebo). The subjects apply Tube A to the arms and face, wait 5 minutes, and then apply the contents of Tube B over the same area. Labels are randomly assigned with records separately maintained identifying the formulation. Codes are not known to either the subjects or the investigator until the study is completed and the data analyzed. All subjects receive Cetaphil cleanser, moisturizer and sunscreen for daily use throughout the study. The first application of Tube A and B is done in the presence of the study coordinator to ensure proper application. Written directions are given to the subjects to apply the products at the same time of day every day and to apply Tube B five minutes after applying Tube A.
Study participants apply the study creams once daily for 12 weeks. […]
Skin firmness (elasticity) is assessed using a ballistometer. Skin retention of water/skin moisture content is assessed via impedance measurements on the cheek area of subjects using a Novameter. Transepidermal water loss is measured using a Tewameter. Sebum secretion is measured using a Sebometer and Sebutape.

[3] = tested on: aging skin; assay: clinical study, combined day/night treatment with IRM and retinoid (2b); format: in vivo, human; conditions: day/night application
Experimental: The above study is repeated except that the topical composition containing the IRM is applied in the morning and a topical composition containing tretinoin is applied at night. Standard 2-4 mm skin punch biopsies are taken at pre-identified sites (on subject's arms) on Day 0 and at the Week 12 visit. Subjects apply the assigned formulation in the presence of the investigator and return for a biopsy within 4-6 hours.

[4] = tested on: PBMC and pDC; assay: cytokine production by PBMC and plasmacytoid dendritic cells (RT-PCR, ELISA); format: cell-based, human; conditions: added at 0.02% to 1% at the same time as TLR-7 agonists
Experimental: Cytokine production by plasmacytoid dendritic cells is measured using real-time RT-PCR on RNA collected from peripheral blood mononuclear cells (PBMC) including pDC (plasmacytoid dendritic cells).
An IRM (TLR-7 agonist) as described in one of the four embodiments of the present invention is introduced into a 24-well plate containing PBMC and pDC h Control wells are treated with DMSO. Cells are incubated for either one or two hours at 37° C. At the indicated times the cells are harvested by gently pipeting the cells into a 1.5 mL Eppendorf tube and centrifuging at 400 RCF for 10 min at 4° C. The supernatant is removed from the tube and the cells are lysed with 1 mL TRIzol (Life Technologies). […] RNA is quantified by absorbency (Abs260) and is reverse-transcribed using SuperScript First Strand Synthesis System for RT-PCR (Life Technologies). Primers for quantitative PCR are generated using Primer Express (PE Applied Biosystems). […] Quantitative PCR is performed on an ABI PRISM 7700 Sequence Detector. Amplified products are detected using SYBR Green PCR Master Mix (PE Biosystems). […] Relative quantitation of gene expression was performed using the DDCt method (User Bulletin #2, PE Applied Systems).
Cytokine and chemokine protein levels are measured from tissue culture supernatants or cell extracts using commercially-available enzyme-linked immuno assay (ELISA) kits. […]

## CC(C)Cn1cnc2c(N)nc3ccccc3c21 [Imiquimod, 1-isobutyl-1H-imidazo[4,5,-C]quinolin-4-amine]
[1]
  time until improved appearance (reduction in the appearance of fine lines and wrinkles) is visible: ≤ 4 weeks

## CC1=C(/C=C/C(C)=C/C=C/C(C)=C/C(=O)O)C(C)(C)CCC1 [tretinoin, all-trans retinoic acid]
[2]
  Irritation (erythema and scaling): at all time points but maximally at the 2 and 4 week time points
  TEWL (Tewameter): increased TEWL
[3]
  Irritation (erythema and scaling): at all time points but maximally at the 2 and 4 week time points
  TEWL (Tewameter): increased TEWL
[4]
  amount of IFN-γ expressed by PBMC cells upon exposure to the TLR-7 agonist: lowers
